Reference: PubChem BioAssay AID1919009 (Molecular Pharmacology Branch, DTP, NCI, 2023)
Values joined by “and” are separate entries in the source; they are usually repeats but may differ in a detail not shown here. Equal values may be shown once.

Tested on: K24384-001-R-PDC complex spheroid growth
Assay: Anticancer human tumor K24384-001-R-PDC patient-derived pancreatic adenocarcinoma cell line growth inhibition [AhR]
Conditions: for viability, T/C: stronger effect = lower value
Excerpt: Multicellular complex tumor spheroid response to aryl hydrocarbon receptor antagonists in combination with a variety of drugs and investigational agents in selected tumor cell lines
The current study was undertaken to assess response to aryl hydrocarbon receptor antagonists in combination with standard-of-care drugs and investigational agents in solid tumor complex spheroid models. Complex spheroids include a stromal component modeled by human endothelial cells (HUVEC) and fibroblasts modeled by human mesenchymal stem cells (MSCs). The concentration ranges selected for each drug and investigational agent were based upon clinically achievable concentrations if the clinical Cmax of the agent was known.
Compounds. The drugs and investigational agents: BAY 2416964 (NSC825713), GNF351 (NSC835774), CH-223191 (NSC835775), CPI-455 (NSC825282), aza-TdCyd (NSC777586), decitabine (NSC127716), belinostat (NSC758774), entinostat (NSC756642), pevonedistat (NSC761192), tazemetostat (NSC777109), talazoparib (NSC765396), olaparib (NSC753686), selinexor (NSC780203), nedisertib (M3814, NSC802822), bortezomib (NSC756655), venetoclax (NSC766270), doxorubicin (NSC123127), elimusertib (BAY189344, NSC800525), ceralasertib (AZD6738, NSC777638), TAK-243 (NSC785004), alisertib (NSC759677), etoposide (NSC141540), topotecan (NSC609699), eribulin (NSC707389), gemcitabine (NSC613327), carboplatin (NSC241240), cisplatin (NSC119875), and SN-38 (NSC673596) were obtained from the National Cancer Institute (NCI) Developmental Therapeutics Program Chemical Repository (32). The FDA-approved anticancer drug set is available from the Developmental Therapeutics Program at https://dtp.cancer.gov/organization/dscb/obtaining/available plates.htm. […] The stock solutions were prepared in dimethyl sulfoxide (DMSO, Sigma-Aldrich, St. Louis, MO, cat. D2650), except for the platinum compounds which were prepared in saline (Quality Biological, Gaithersburg, MD, cat. 114-055-101), at 800-fold the tested concentration and stored at -70 degrees C prior to their use. All drugs and investigational agents were tested over a range starting from a high concentration at or near the clinical Cmax and decreasing in half-log increments. If the clinical Cmax for an agent had not been determined, the highest concentration tested was 10 microM (Table 1).
Cell Culture. All cells were maintained in an incubator at 37 degrees C and 5% CO2 with 95% humidity. The PDC lines were cultured according to standard operating procedures established by the NCI PDMR (https://pdmr.cancer.gov). Briefly, all PDCs were thawed and cultured in Matrigel-coated flasks prepared with a working solution of 1X Ham's F-12 nutrient mix, without supplementation (Invitrogen, Waltham, MA, cat. 11765054), 100 U/mL penicillin-streptomycin (Invitrogen, cat. 15140122), and 2.5% Matrigel (Corning Inc., Corning, NY, cat. 354248) for the first three passages. All PDCs were cultured in complete DMEM/F-12 media containing advanced DMEM/F-12 (Invitrogen, cat. 12634028), 4.9% defined fetal bovine serum, heat inactivated (HyClone Laboratories Inc., Logan, UT, cat. SH30070.03HI), 389 ng/mL hydrocortisone (Sigma-Aldrich, cat. H4001), 9.7 ng/mL human EGF recombinant protein (Invitrogen, cat. PHG0313), 23.4 microg/mL adenine (Sigma-Aldrich, cat. A2786), 97.3 U/mL penicillin-streptomycin (Invitrogen, cat. 15140122), 1.9 mM L-glutamine (Invitrogen, cat. 25030081), and 9.7 microM Y-27632 dihydrochloride (Tocris Bioscience, Bristol, United Kingdom, cat. 1254). The PDCs were cultured in complete DMEM/F12 media without 10 microM Y-27632 dihydrochloride for at least two passages prior to the screen. The established cell lines NCI-H1341 and […] were cultured in DMEM/F-12, HEPES (Invitrogen, cat. 11330032), 5% defined fetal bovine serum (HyClone Laboratories Inc., cat. SH30070.03), ITS premix universal culture supplement [insulin (5 microg/mL), transferrin (5 microg/mL), and selenious acid (5 ng/mL)] […]
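Wherever viability, T/C is given: percent of DMSO vehicle-treated spheroid viability set as 100%.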

Row | IC50 (curve of compound) | SMILES | viability, T/C (compound 0.0316 µM) | viability, T/C (compound 0.1 µM) | viability, T/C (compound 0.316 µM) | viability, T/C (compound 1 µM) | viability, T/C (compound 3.16 µM) | viability, T/C (compound 10 µM) | also measured
1 | 12 nM and 13.3 nM and 6.03 nM | CC(C)CC(NC(=O)C(Cc1ccccc1)NC(=O)c1cnccn1)B(O)O (stereo not drawn) |  |  |  |  |  |  | viability, T/C (compound 0.000949 µM): 105% and 92.1% and 95.6%; viability, T/C (compound 0.003 µM): 108% and 98.8% and 96.7%; viability, T/C (compound 0.00949 µM): 62.6% and 70.1% and 20.1%; viability, T/C (compound 0.03 µM): 2.24% and 1.22% and 0.66%; viability, T/C (compound 0.0949 µM): 0.59% and 0.38% and 0.4%; viability, T/C (compound 0.3 µM): 0.39% and 0.36% and 1.49%
2 | > 10000 nM | CC(C)c1c(-c2ccccc2)nc2c(C#N)c[nH]n2c1=O | 108% and 110% and 104% | 95% and 105% (2×) | 98.1% and 105% and 104% | 93.7% and 93.4% and 98.7% | 91.1% and 103% (2×) | 91.9% and 98.8% and 81% | 
3 |  | CC(CO)NC(=O)c1cc(-c2ccc(Cl)cc2)nn(-c2cnn(C)c2)c1=O (stereo not drawn) |  |  |  |  |  |  | IC50 (compound alone, run of 05/31/2022): > 10000 nM
4 | 7030 nM and > 10000 nM | CC1(C)CCC(CN2CCN(c3ccc(C(=O)NS(=O)(=O)c4ccc(NCC5CCOCC5)c([N+](=O)[O-])c4)c(Oc4cnc5[nH]ccc5c4)c3)CC2)=C(c2ccc(Cl)cc2)C1 | 104% (2×) and 108% | 90.7% and 115% and 103% | 90% and 103% and 106% | 111% and 105% and 92.7% | 126% and 88.2% and 84.7% | 25.9% and 60.7% and 62.5% | 
5 | 93.2 nM and 92.7 nM and 202 nM | CC1COCCN1c1cc(-c2ccnn2C)c2ccnc(-c3ccn[nH]3)c2n1 (stereo not drawn) | 82.7% and 80.5% and 89% | 47.8% and 48.9% and 65% | 30.6% and 29.8% and 41.7% | 27.8% and 28.6% and 29.4% |  |  | viability, T/C (compound 0.00316 µM): 93% and 95.6% and 116%; viability, T/C (compound 0.01 µM): 92.2% and 102% and 116%
6 | 6470 nM and 4310 nM and 7580 nM | CC1COCCN1c1cc(C2(S(C)(=N)=O)CC2)nc(-c2ccnc3[nH]ccc23)n1 (stereo not drawn) | 107% and 105% and 126% | 98.2% and 113% and 97.1% | 105% and 102% and 95.6% | 85% and 85.7% and 89.4% | 71.8% and 56.9% and 59.7% | 37.3% and 32.7% and 45.1% | 
7 | > 3000 nM | CCN(c1cc(-c2ccc(CN3CCOCC3)cc2)cc(C(=O)NCc2c(C)cc(C)[nH]c2=O)c1C)C1CCOCC1 |  |  |  |  |  |  | viability, T/C (compound 0.00949 µM): 108% and 104% and 103%; viability, T/C (compound 0.03 µM): 116% and 114% and 95.3%; viability, T/C (compound 0.0949 µM): 120% and 111% and 97.5%; viability, T/C (compound 0.3 µM): 87.1% and 95.9% and 103%; viability, T/C (compound 0.949 µM): 98.3% and 89% and 90%; viability, T/C (compound 3 µM): 101% (2×) and 87.2%
8 | > 100 nM and 54.2 nM | CC[C@@]1(O)C(=O)OCc2c1cc1n(c2=O)Cc2cc3c(CN(C)C)c(O)ccc3nc2-1 | 77.6% and 75.8% and 57.6% | 53.6% and 53.5% and 41.5% |  |  |  |  | viability, T/C (compound 0.000316 µM): 107% and 108% and 98.2%; viability, T/C (compound 0.001 µM): 99.3% and 117% and 102%; viability, T/C (compound 0.00316 µM): 95.4% and 87.5% and 95.7%; viability, T/C (compound 0.01 µM): 89.1% and 80% and 82.3%
9 | 20.9 nM and 48.4 nM and 58.2 nM | CCc1c2c(nc3ccc(O)cc13)-c1cc3c(c(=O)n1C2)COC(=O)[C@]3(O)CC |  |  |  |  |  |  | viability, T/C (compound 0.000949 µM): 70.9% and 79.9% and 78.5%; viability, T/C (compound 0.003 µM): 67% and 71.9% and 67.1%; viability, T/C (compound 0.00949 µM): 58.6% and 52.8% and 65%; viability, T/C (compound 0.03 µM): 43.8% and 54.9% and 51.5%; viability, T/C (compound 0.0949 µM): 38.5% and 51% and 50.3%; viability, T/C (compound 0.3 µM): 27.5% and 39.2% and 36.9%
10 | 1410 nM and 2650 nM and 1830 nM | COc1cc(C2c3cc4c(cc3C(OC3OC5COC(C)OC5C(O)C3O)C3COC(=O)C23)OCO4)cc(OC)c1O (stereo not drawn) | 106% and 96.2% and 98% | 86.7% and 100% and 103% | 60.8% and 83.3% and 80.6% | 53.5% and 62.9% and 58.8% | 48.5% and 51% and 43.7% | 39% and 34.7% and 37.7% | 
11 | > 10000 nM | COc1cc(Nc2ncc3c(n2)-c2ccc(Cl)cc2C(c2c(F)cccc2OC)=NC3)ccc1C(=O)O | 97.3% and 91.9% and 85.7% | 68.5% and 72.4% and 74.3% | 63.9% and 60% and 69.9% | 44.3% and 55.1% and 50.6% | 52.4% and 54.8% and 52.6% | 55.5% and 62.7% and 57% | 
12 | 5510 nM and 7030 nM and > 10000 nM | COc1ccc([C@@H](O)c2cc(-c3ncnc4cc(N5CCOCC5)ccc34)c(F)cc2Cl)nn1 | 107% and 86.3% and 109% | 101% (2×) and 104% | 96.8% and 94.6% and 105% | 76% and 81.3% and 72.5% | 63.3% and 73.9% and 71.7% | 37.4% and 39.9% and 49.7% | 
